This is an account of results in patent US10450336B2 (Los Alamos National Security, LLC, priority 2014, dated 2019).

Each structure is given as a SMILES string.

This assay in a line: radiolabeling kinetics of the ligands with Bi-207 (radio-TLC). The conditions noted are these: bismuth complexation, comparison among the four ligands. The protocol: The radiolabeling kinetics of the ligands L^py, L^pyd, L^pyr, and L^pz with bismuth ions was examined using Bi-207 (t1/2=32 years) because it has a much longer half life than Bi-213. Solutions having concentrations of 1, 10, 100, and 1000 micromolar (“μM”) of each of the ligands were prepared. Each solution was combined with 3 kBq of Bi-207. The reaction temperature was ambient room temperature (21±2° C.). Aliquots of each reaction mixture were obtained during the reaction and analyzed by radio-TLC. The rates of reaction (i.e. the radiolabeling kinetics) between the bismuth ions and the ligands were dependent on the individual ligand and also on the concentration of the ligand. At a ligand concentration of 1 μM, a maximum of 50% labeling was observed after 60 minutes. At a ligand concentration of 1000 micromolar, the reaction was nearly 100% complete (i.e. 100% of the ligand was labeled with Bi-207) after 5 minutes. FIG. 3 provides a graph of the radiolabeling kinetics for the four ligands at a ligand concentration of 100 μM. […] By comparison, chelation of Bi-213 with the known ligands DOTA and CHX-DTPA requires heating to 90° C.

`c1cnc(CN2CCN(Cc3cnccn3)CCN(Cc3cnccn3)CCN(Cc3cnccn3)CC2)cn1` [L^py, 1,4,7,10-Tetrakis(2-pyrazinylmethyl)-1,4,7,10-tetraazacyclododecane, reference compound]: the “complexation kinetics (relative)” value is “slowest”.
